From patent US20230270828A1, “COMPOSITION FOR USE IN THE TREATMENT OF VIRAL INFECTIONS” (BICT S.R.L., priority 2020, published 2023)
Like-named read-outs stand apart in the source and are kept apart here. Marks after values point to notes of the source that are not given here.

How the values were obtained:
[1] = tested on: Vero cells (Monkey Kidney Epithelial Cells)
[2] = tested on: canine herpes virus, CHV-1; assay: Antiviral checkerboard assay, Cf2Th cells infected with canine herpes virus CHV-1; format: cell-based
Method: This antiviral activity was evaluated using Cf2Th cells (canine thymocytes) infected with canine herpes virus, CHV-1.
Briefly, the Cf2Th cells were plated at a concentration of 5×10^5 cells/mL in 96-well multiwells (100 μL/well) and incubated at 37° C. in an atmosphere with 5% CO2.
Upon reaching about 90% confluence (48 h incubation), the medium was aspirated from each well, and replaced with 100 μL fresh medium containing a final virus concentration equal to 1×10^3 UFP/mL, and different concentrations of Lactoferricin and Grape Seed extract.
In particular, the different combinations between the two compounds had been previously prepared by crossing serial dilutions of the same, according to the protocol defined “broth microdilution checkerboard method”.
The cells were left in co-incubation with the virus and the compounds under examination for 48 h (37° C. -5% CO2).
At the end of the incubation, the wells characterized by a cell lysis given by the viral infection were discriminated from those in which the virus was inhibited by the compounds and therefore with viable cells. This evaluation was carried out both by direct observation under the microscope and by staining with methylene blue. […]
To determine the actual presence of synergy between the two compounds, the ratio below was calculated, defined as the FIC Index (FIC I). […]

[3] = tested on: SARS-CoV-2; format: cell-based
[4] = tested on: SARS-CoV-2; assay: Virucide activity against SARS-CoV-2, plaque assay; format: cell-based; conditions: scheme B+C; for SARS-CoV-2 infectivity reduced by: plaque assay

CCN(CC)CCCC(C)Nc1ccnc2cc(Cl)ccc12 (centres unmarked) [Chloroquine, chloroquine, reference compound]
CC10 ([1]; Vero cells, 72 h, MTT): 20.93 ± 4.39 µM

Lactoferricin
Minimum Antiviral Concentration Compound alone ([2]; CHV-1, 48 h co-incubation): 3.125%
Minimum Antiviral Concentration Compound in association ([2]; in association with Grape Seed Extract, CHV-1, 48 h): 0.781%

lactoferrin/lactoferricin [PREP 1]
CC10 ([1]; Vero cells, 72 h, MTT): >4.06* mg/ml
CC50 ([1]; Vero cells, 72 h, MTT): >4.06* mg/ml
maximum nontoxic concentration (assumed) ([1]; Vero cells, based on CC50/CC10 data): 4.06 mg/mL
Mean ΔCt ([3]; 1.02 mg/ml, scheme A (preincubation of virus with compound)): 0.16
Mean ΔCt ([3]; 1.02 mg/ml, scheme B+C (during and after inoculum)): −0.48
Mean ΔCt ([3]; 1.02 mg/ml, scheme B+C+D (during, after inoculum and repeated)): −0.59
Mean ΔCt ([3]; 2.03 mg/ml, scheme A (preincubation of virus with compound)): 0.36
Mean ΔCt ([3]; 2.03 mg/ml, scheme B+C (during and after inoculum)): −0.50
Mean ΔCt ([3]; 2.03 mg/ml, scheme B+C+D (during, after inoculum and repeated)): −1.11
Mean ΔCt ([3]; 4.06 mg/ml, scheme A (preincubation of virus with compound)): 0.52
Mean ΔCt ([3]; 4.06 mg/ml, scheme B+C (during and after inoculum)): −2.90
Mean ΔCt ([3]; 4.06 mg/ml, scheme B+C+D (during, after inoculum and repeated)): −3.64
mean ΔCt over schemes C, B+C and B+C+D ([3]; high dose, added after the inoculum, one or twice): −3.3

polylysine [PREP 3]
CC10 [1]: >0.40 mg/mL
antiviral effect [3]: No antiviral effect
virus inhibition (antiviral and virucide activities) [3]: more than 90%
ΔCt, dose-dependent antiviral effect [3]: −1.80 to −5.22
antiviral effect ([3]; addition of a third dose (scheme B+C+D)): slight effect
decrease in the viral replication ([3]; scheme B+C): more than 1 log
maximum inhibition of the virus replication ([3]; scheme B+C): 93%
antiviral effect ([3]; schemes A, B and C): no effect
SARS-CoV-2 infectivity reduced by ([4]; 0.05 mg/ml): 20%
percentage of virus replication compared to untreated infected cells ([4]; 0.05 mg/ml): 80%
SARS-CoV-2 infectivity reduced by ([4]; 0.1 mg/ml): 30.2%
percentage of virus replication compared to untreated infected cells ([4]; 0.10 mg/ml): 69.8%
SARS-CoV-2 infectivity reduced by ([4]; 0.20 mg/ml): 48.8%
percentage of virus replication compared to untreated infected cells ([4]; 0.20 mg/ml): 51.2%
SARS-CoV-2 infectivity reduced by ([4]; 0.40 mg/ml): 96.3%
percentage of virus replication compared to untreated infected cells ([4]; 0.40 mg/ml): 3.7%
